Read-outs that look alike come from different tables or passages of the source.
Columns and labels:
GAK [1] = target: T1, GAK (Homo sapiens, UniProt O14976); assay: biochemical
T1 sequence (O14976 12-347 limits assumed): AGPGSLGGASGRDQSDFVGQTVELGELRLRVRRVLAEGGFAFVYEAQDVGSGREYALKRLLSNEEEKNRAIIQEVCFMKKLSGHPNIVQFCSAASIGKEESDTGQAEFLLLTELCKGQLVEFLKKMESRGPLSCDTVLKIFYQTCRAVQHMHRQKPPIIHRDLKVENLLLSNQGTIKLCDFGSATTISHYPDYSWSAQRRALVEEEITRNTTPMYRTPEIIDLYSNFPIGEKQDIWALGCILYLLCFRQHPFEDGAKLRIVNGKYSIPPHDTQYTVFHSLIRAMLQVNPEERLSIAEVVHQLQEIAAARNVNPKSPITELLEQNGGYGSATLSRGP

SLK [2] = target: T2, SLK (Homo sapiens, UniProt Q9H2G2); assay: biochemical
STK10 [3] = target: T3, STK10 (Homo sapiens, UniProt O94804); assay: biochemical
[4] = target: T4, full length GAK protein N-terminally fused with NanoLuc luciferase (Homo sapiens, UniProt O14976); assay: cell-based; parameters: species or system HEK293T
T4 sequence (O14976 2-1311): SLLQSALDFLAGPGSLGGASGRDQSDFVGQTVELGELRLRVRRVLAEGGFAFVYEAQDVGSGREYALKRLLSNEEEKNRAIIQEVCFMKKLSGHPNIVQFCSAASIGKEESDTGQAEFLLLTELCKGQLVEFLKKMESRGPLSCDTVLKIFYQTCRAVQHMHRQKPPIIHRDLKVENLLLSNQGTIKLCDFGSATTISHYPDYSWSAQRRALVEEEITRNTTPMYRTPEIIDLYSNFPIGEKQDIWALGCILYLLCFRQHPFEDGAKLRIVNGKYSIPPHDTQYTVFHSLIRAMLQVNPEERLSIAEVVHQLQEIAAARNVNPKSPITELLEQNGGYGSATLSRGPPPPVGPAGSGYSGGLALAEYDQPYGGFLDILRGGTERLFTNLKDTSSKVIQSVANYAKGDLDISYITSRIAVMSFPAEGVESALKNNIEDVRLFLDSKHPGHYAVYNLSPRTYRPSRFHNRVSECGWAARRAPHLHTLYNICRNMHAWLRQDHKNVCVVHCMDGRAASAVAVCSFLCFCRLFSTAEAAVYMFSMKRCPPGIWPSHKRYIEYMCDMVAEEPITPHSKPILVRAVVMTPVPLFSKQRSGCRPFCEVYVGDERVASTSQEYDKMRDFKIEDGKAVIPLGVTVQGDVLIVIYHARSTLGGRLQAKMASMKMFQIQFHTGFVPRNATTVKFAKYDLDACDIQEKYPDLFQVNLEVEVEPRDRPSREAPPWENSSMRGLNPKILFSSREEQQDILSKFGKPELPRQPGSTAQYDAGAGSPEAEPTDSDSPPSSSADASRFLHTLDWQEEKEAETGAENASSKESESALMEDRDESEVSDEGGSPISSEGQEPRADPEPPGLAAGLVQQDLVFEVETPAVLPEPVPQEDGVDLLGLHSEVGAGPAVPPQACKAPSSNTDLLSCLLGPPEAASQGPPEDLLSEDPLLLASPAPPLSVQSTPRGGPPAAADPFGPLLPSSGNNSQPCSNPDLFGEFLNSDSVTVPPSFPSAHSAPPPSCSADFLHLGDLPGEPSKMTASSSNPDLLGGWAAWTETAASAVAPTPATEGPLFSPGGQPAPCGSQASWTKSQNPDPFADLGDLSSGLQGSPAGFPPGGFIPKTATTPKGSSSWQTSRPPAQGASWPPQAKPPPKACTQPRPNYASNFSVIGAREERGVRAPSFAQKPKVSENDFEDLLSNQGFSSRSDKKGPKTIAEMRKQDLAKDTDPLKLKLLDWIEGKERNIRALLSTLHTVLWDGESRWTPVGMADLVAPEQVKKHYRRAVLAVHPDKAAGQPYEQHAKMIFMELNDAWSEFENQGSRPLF

GAK [5] = target: T1, GAK; assay: biochemical; remark: listed apart in the source
SLK [6] = target: T2, SLK; assay: biochemical; remark: listed apart in the source
STK10 [7] = target: T3, STK10; assay: biochemical; remark: listed apart in the source
[8] = target: T4, full length GAK protein N-terminally fused with NanoLuc luciferase; assay: cell-based; parameters: species or system HEK293T; remark: listed apart in the source
SLK [9] = target: T2, SLK; assay: TR-FRET binding displacement assay
STK10 [10] = target: T3, STK10; assay: TR-FRET binding displacement assay
GAK [11] = target: T1, GAK; assay: biochemical; remark: listed apart in the source
SLK [12] = target: T2, SLK; assay: biochemical; remark: listed apart in the source
STK10 [13] = target: T3, STK10; assay: biochemical; remark: listed apart in the source
[14] = target: T4, full length GAK protein N-terminally fused with NanoLuc luciferase; assay: cell-based; parameters: species or system HEK293T; remark: listed apart in the source
SLK [15] = target: T2, SLK; assay: biochemical; remark: listed apart in the source
STK10 [16] = target: T3, STK10; assay: biochemical; remark: listed apart in the source
[17] = target: T4, full length GAK protein N-terminally fused with NanoLuc luciferase; assay: cell-based; parameters: species or system HEK293T; remark: listed apart in the source

T3 sequence (O94804 36-294 limits assumed): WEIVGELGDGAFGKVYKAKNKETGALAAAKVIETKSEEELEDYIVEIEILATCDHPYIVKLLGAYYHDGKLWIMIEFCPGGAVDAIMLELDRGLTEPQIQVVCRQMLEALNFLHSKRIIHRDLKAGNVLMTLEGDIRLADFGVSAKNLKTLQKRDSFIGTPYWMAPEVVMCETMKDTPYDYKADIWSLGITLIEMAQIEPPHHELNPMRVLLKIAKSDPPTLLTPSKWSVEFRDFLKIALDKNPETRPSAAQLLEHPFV
T2 sequence (Q9H2G2 34-292): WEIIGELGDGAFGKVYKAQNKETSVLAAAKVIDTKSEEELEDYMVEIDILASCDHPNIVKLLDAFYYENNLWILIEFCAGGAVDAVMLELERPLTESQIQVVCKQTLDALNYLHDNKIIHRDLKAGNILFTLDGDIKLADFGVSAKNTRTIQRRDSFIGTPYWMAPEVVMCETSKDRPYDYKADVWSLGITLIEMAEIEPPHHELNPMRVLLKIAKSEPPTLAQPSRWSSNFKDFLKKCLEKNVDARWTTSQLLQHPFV

| Ki (GAK [1]) | Ki (SLK [2]) | IC50 [4] | Ki (GAK [11]) | Ki (SLK [12]) | Ki (STK10 [13]) | IC50 [14] | SMILES | further results |
| --- | --- | --- | --- | --- | --- | --- | --- | --- |
| – | – | – | 0.32 µM | 6.3 µM | 1.6 µM | > 5 µM | C#Cc1cc(Nc2ncnc3cc(C#N)ccc23)ccc1Cl [compound 90, 90] | – |
| – | – | – | 0.11 µM | 0.39 µM | 0.25 µM | > 5 µM | C#Cc1ccc(F)c(Nc2ncnc3cc(I)ccc23)c1 [compound 91, 91] | – |
| – | – | – | 0.093 µM | 0.86 µM | 0.27 µM | > 5 µM | C#Cc1cccc(Nc2ncnc3cc(I)ccc23)c1F [compound 92, 92] | – |
| – | – | – | 0.092 µM | 0.93 µM | 0.24 µM | > 5 µM | C#Cc1cc(Nc2ncnc3cc(I)ccc23)ccc1Cl [compound 94, 94] | – |
| – | – | – | 0.19 µM | 4.5 µM | 4.9 µM | > 5 µM | C#Cc1ccc(F)c(Nc2ncnc3ccc(I)cc23)c1 [compound 95, 95] | – |
| – | – | – | 0.29 µM | 18 µM | 6.7 µM | > 5 µM | C#Cc1cccc(Nc2ncnc3ccc(I)cc23)c1F [compound 96, 96] | – |
| – | – | – | 0.068 µM | 1.6 µM | 0.87 µM | > 5 µM | C#Cc1cc(Nc2ncnc3ccc(I)cc23)ccc1F [compound 97, 97] | – |
| – | – | – | 0.14 µM | 7.1 µM | 1 µM | > 5 µM | C#Cc1cc(Nc2ncnc3ccc(I)cc23)ccc1Cl [compound 98, 98] | – |
| – | – | – | 0.0058 µM | 0.28 µM | 0.22 µM | 0.39 µM | C#Cc1ccc(F)c(Nc2ncnc3cc(OC)c(OC)cc23)c1 [compound 99, 99] | – |
| – | – | – | 0.0024 µM | 0.072 µM | 0.047 µM | 0.14 µM | C#Cc1cc(Nc2ncnc3cc(OC)c(OC)cc23)ccc1F [compound 101, 101] | – |
| – | – | – | 0.0034 µM | 0.33 µM | 0.075 µM | 0.39 µM | C#Cc1cc(Nc2ncnc3cc(OC)c(OC)cc23)ccc1Cl [compound 102, 102] | – |

The remaining lines, values behind:

| SMILES | Ki (GAK [1]) | Ki (SLK [2]) | IC50 [4] | Ki (GAK [11]) | Ki (SLK [12]) | Ki (STK10 [13]) | IC50 [14] | further results |
| --- | --- | --- | --- | --- | --- | --- | --- | --- |
| COc1cc(Nc2c(C#N)cnc3ccccc23)cc(OC)c1OC [compound 43, 43] | 0.0088 µM | 7.7 µM | 0.33 µM | – | – | – | – | Ki (STK10 [3]): 4.7 µM |
| COc1cc(Nc2c(C#N)cnc3ccc(Cl)cc23)cc(OC)c1OC [compound 44, 44] | 0.0038 µM | 53 µM | 0.24 µM | – | – | – | – | Ki (STK10 [3]): 26 µM |
| COc1cc(Nc2c(C#N)cnc3ccc(Br)cc23)cc(OC)c1OC [compound 45, 45] | 0.0023 µM | 9.4 µM | 0.2 µM | – | – | – | – | – |
| COc1cc(Nc2c(C#N)cnc3ccc(I)cc23)cc(OC)c1OC [compound 46, 46] | 0.0048 µM | 9.7 µM | 0.26 µM | – | – | – | – | Ki (STK10 [3]): 4.2 µM |
| COc1ccc2ncc(C#N)c(Nc3cc(OC)c(OC)c(OC)c3)c2c1 [compound 47, 47] | 0.0024 µM | 3.2 µM | 0.092 µM | – | – | – | – | Ki (STK10 [3]): 1.9 µM |
| COc1cc2ncc(C#N)c(Nc3cc(OC)c(OC)c(OC)c3)c2cc1OC [compound 48, 48] | – | – | – | – | – | – | – | Ki (GAK [1]; read-out: GAK Ki, binder): 0.00085 µM; Ki (SLK [2]; read-out: SLK Ki, binder): 0.57 µM; Ki (STK10 [3]; read-out: STK10 Ki, binder): 0.42 µM; IC50 ([4]; read-out: NanoBRET GAK IC50, binder): 0.006 µM |
| COc1cc(Nc2c(C#N)cnc3ccc(S(C)(=O)=O)cc23)cc(OC)c1OC [compound 49, 49] | 0.21 µM | 1.2 µM | > 5 µM | – | – | – | – | Ki (STK10 [3]): 1.5 µM |
| COc1cc(Nc2c(C#N)cnc3cc(Cl)ccc23)cc(OC)c1OC [compound 50, 50] | 0.0066 µM | 1.4 µM | 0.47 µM | – | – | – | – | Ki (STK10 [3]): 0.79 µM |
| COc1cc(Nc2c(C#N)cnc3cc(Br)ccc23)cc(OC)c1OC [compound 51, 51] | 0.0029 µM | 0.71 µM | 0.14 µM | – | – | – | – | Ki (STK10 [3]): 0.44 µM |
| COc1cc(Nc2c(C#N)cnc3cc(I)ccc23)cc(OC)c1OC [compound 52, 52] | 0.0052 µM | 0.49 µM | 0.2 µM | – | – | – | – | Ki (STK10 [3]): 0.2 µM |
| COc1ccc2c(Nc3cc(OC)c(OC)c(OC)c3)c(C#N)cnc2c1 [compound 53, 53] | 0.002 µM | 2.1 µM | 0.078 µM | – | – | – | – | Ki (STK10 [3]): 1.2 µM |
| C#Cc1cccc(Nc2c(C#N)cnc3ccccc23)c1 [compound 75, 75] | – | – | – | – | – | – | – | Ki (GAK [5]): 0.018 µM; Ki (SLK [6]): 0.35 µM; Ki (STK10 [7]): 0.34 µM; IC50 [8]: 1.5 µM |
| C#Cc1cccc(Nc2c(C#N)cnc3ccc(F)cc23)c1 [compound 76, 76] | – | – | – | – | – | – | – | Ki (GAK [5]): 0.026 µM; Ki (SLK [6]): 0.54 µM; Ki (STK10 [7]): 0.58 µM; IC50 [8]: 3.8 µM |
| C#Cc1cccc(Nc2c(C#N)cnc3ccc(Cl)cc23)c1 [compound 77, 77] | – | – | – | – | – | – | – | Ki (GAK [5]): 0.016 µM; Ki (SLK [6]): 0.71 µM; Ki (STK10 [7]): 0.72 µM; IC50 [8]: 3.2 µM |
| C#Cc1cccc(Nc2c(C#N)cnc3ccc(Br)cc23)c1 [compound 78, 78] | – | – | – | – | – | – | – | Ki (GAK [5]): 0.017 µM; Ki (SLK [6]): 1.2 µM; Ki (STK10 [7]): 1.1 µM; IC50 [8]: 4.4 µM |
| C#Cc1cccc(Nc2c(C#N)cnc3ccc(I)cc23)c1 [compound 79, 79] | – | – | – | – | – | – | – | Ki (GAK [5]): 0.02 µM; Ki (SLK [6]): 1.1 µM; Ki (STK10 [7]): 1 µM; IC50 [8]: > 5 µM |
| C#Cc1cccc(Nc2c(C#N)cnc3ccc(S(C)(=O)=O)cc23)c1 [compound 80, 80] | – | – | – | – | – | – | – | Ki (GAK [5]): 0.18 µM; Ki (SLK [6]): > 55 µM; Ki (STK10 [7]): 42 µM; IC50 [8]: > 5 µM |
| C#Cc1cccc(Nc2c(C#N)cnc3cc(Cl)ccc23)c1 [compound 84, 84] | – | – | – | – | – | – | – | Ki (GAK [5]): 0.028 µM; Ki (SLK [6]): 0.18 µM; Ki (STK10 [7]): 0.21 µM; IC50 [8]: > 5 µM |
| C#Cc1cccc(Nc2c(C#N)cnc3cc(I)ccc23)c1 [compound 86, 4-((3-ethynylphenyl)amino)-7-iodoquinoline-3-carbonitrile] | – | – | – | – | – | – | – | Ki (SLK [9]): 0.075 µM; Ki (STK10 [10]): 0.08 µM; Ki (GAK [5]): 0.019 µM; IC50 [8]: > 5 µM |
| Fc1ccc(Nc2ccnc3ccc(Br)cc23)cc1 [compound 108, 108] | – | – | – | – | – | – | – | Ki (SLK [15]): 36 µM; Ki (STK10 [16]): 21 µM; IC50 [17]: 0.94 µM |

— publication doi:10.1101/757047v1 (biorxiv, 2019)
